≈ marks a conversion by molar mass, not a printed value.
Assays:
tobacco cutworm = experiment: whole plant or invertebrate; type: in vivo; details: for LC50: 48 h, read-out: LC50 (median lethal concentration); for Relative Efficacy (reference compound: 100): from LC50, tobacco cutworm, reference = racemate with same X
Excerpt: (§1) 10 parts of each of the compounds of this invention, (1), (2), (3), (4) and (5) was mixed with 15 parts of Sorpol 3005x (a registered trademark of Toho Chemical Co., Ltd.) and 75 parts of xylene, and the mixture was thoroughly stirred to provide a 10% emulsifiable concentrate.
(§2) In the following test examples, the "racemate" (conventional product) of each of the compounds of the formula (I) was formulated in the same procedures as in each test example and then used as a reference compound.
Each of the emulsifiable concentrates prepared from the compounds of this invention, (1), (2), (3), (4) and (5) in the procedures described in Formulation Example 1 was diluted with water to a predetermined concentration, and a sticker containing 20% of an alkylphenol polyethylene glycol ether and 12% of a salt of lignin sulfonic acid was added to the solution in an amount of 1 ml per 3,000 ml of the solution. […] Ten 3rd-instar larvae of tobacco cutworm were further immersed in each solution for 10 seconds. The leaves and cutworms were air-dried and placed in each plastic cup having a diameter of 10 cm and a height of 4 cm. 48 hours later, the alive and dead was evaluated to obtain the LC50 (median lethal concentration) (ppm).

[1] = tested on: female adult CSMA-strain houseflies; experiment: Test Example 2: topical application to thorax, mortality after 24 hours; type: in vivo, housefly; details: for Relative Efficacy (reference compound: 100): from LD50, housefly, reference = racemate with same X; for LD50 (median lethal dose): topical, 0.5 μl acetone solution to thorax, 24 hours
Experimental: as §2
The compounds of this invention, (1), (2), (3), (4) and (5) were diluted with acetone to a predetermined concentration, and 0.5 μl of each solution was topically applied to thorax of female adult CSMA-strain houseflies with a microsyringe. The flies were placed in a plastic cup having a diameter of 12 cm containing therein cotton absorbent impregnated with 3% sugar water. 24 hours later, the alive and dead was evaluated to determine the LD50 (median lethal dose) (μg/insect).

[2] = tested on: adult green rice leafhoppers; experiment: Test Example 3: dust applied to rice seedlings, mortality after 24 hours; type: in vivo, green rice leafhopper; details: 0.5% dust, 2 kg/10 ares, 200 mmHg
Experimental: 0.5 part of each of the compounds of this invention, (1), (2), (3), (4) and (5) was dissolved in 20 parts of acetone. To the solution was added 99.5 parts of 300 mesh clay, and the mixture was thoroughly stirred. The acetone was distilled off to provide a 0.5% dust.
The dusts prepared from the compounds of this invention, (1), (2), (3), (4) and (5) in the procedures described in Formulation Example 2 were applied to rice seedlings planted in each 3 inch pot and 20 days old after seeding. A bell-jar duster was used to apply each dust at a pressure of 200 mmHg at a rate of 2 kg/10 ares. After the treatment, each pot was enclosed with a metal screen cage in which about 30 adult green rice leafhoppers were released.

carmine mites = experiment: Test Example 4: emulsifiable concentrate applied to mite-infested potted kidney beans; type: in vivo, carmine mite; details: 10% emulsifiable concentrate diluted 500-fold, 10 ml/pot; 10 days
Experimental: as §1
10 to 15 female adult carmine mites were placed on each leaf of potted kidney beans (2-leaf stage) 9 days old after seeding. After standing in a constant temperature room at 27° C. for a week, a lot of mites in various growth stages were observed on the beans. Each of the emulsifiable concentrates prepared from the compounds of this invention (1) and (2) in the procedures described in Formulation Example 1 was diluted 500-fold with water and applied to the beans on a turntable at a rate of 10 ml/pot.

[3] = tested on: harmful insects and/or mites; experiment: Insecticidal and/or acaricidal activity of optical isomers (general statement); type: in vivo; details: Aα-isomer, X = F versus other halogens

Row | Structure (SMILES) | LC50 (tobacco cutworm) [µg/mL] | Relative Efficacy (reference compound: 100) (tobacco cutworm) | Relative Efficacy (reference compound: 100) [1] | LD50 (median lethal dose) [1] [μg/insect] | alive and dead evaluation of leafhoppers [2] | damage to mite-released kidney beans (carmine mites) | activity compared with other halogen-substituted compounds [3]
1 | CC(C)C(C(=O)OC(C#N)c1cccc(Oc2ccc(Cl)cc2)c1)c1ccc(Cl)cc1 (racemic) [(b), reference compound] | 15.2 (≈ 33.5 µM) | 100 | 100 | 0.062 | – | – | –
2 | CC(C)C(C(=O)OC(C#N)c1cccc(Oc2ccc(Br)cc2)c1)c1ccc(Cl)cc1 (racemic) [(c), reference compound] | 20 (≈ 40.1 µM) | 100 | 100 | 0.080 | – | – | –
3 | CC(C)C(C(=O)OC(C#N)c1cccc(Oc2ccc(F)cc2)c1)c1ccc(Cl)cc1 (racemic) [Reference Compound (a), reference compound] | 5 (≈ 11.4 µM) | 100 | 100 | 0.041 | – | – | –
4 | CC(C)[C@H](C(=O)OC(C#N)c1cccc(Oc2ccc(F)cc2)c1)c1ccc(Cl)cc1 (stereo partly shown) [Compound (1)] | 2.3 (≈ 5.25 µM) | 217 | 216 | 0.019 | completely killed | little damaged | –
5 | CC(C)[C@H](C(=O)O[C@H](C#N)c1cccc(Oc2ccc(F)cc2)c1)c1ccc(Cl)cc1 [Compound (2)] | 1.2 (≈ 2.74 µM) | 417 | 410 | 0.010 | completely killed | little damaged | stronger activity than other halogen-substituted compounds
6 | CC(C)[C@H](C(=O)O[C@H](C#N)c1cccc(Oc2ccc(Cl)cc2)c1)c1ccc(Cl)cc1 [Compound (3)] | 3.9 (≈ 8.58 µM) | 390 | 388 | 0.016 | completely killed | – | –
7 | CC(C)[C@H](C(=O)OC(C#N)c1cccc(Oc2ccc(Br)cc2)c1)c1ccc(Cl)cc1 (stereo partly shown) [Compound (4)] | 9.5 (≈ 19 µM) | 211 | 229 | 0.035 | completely killed | – | –
8 | CC(C)[C@H](C(=O)O[C@H](C#N)c1cccc(Oc2ccc(Br)cc2)c1)c1ccc(Cl)cc1 [Compound (5)] | 4.2 (≈ 8.42 µM) | 476 | 444 | 0.018 | completely killed | – | –

Reference: patent US4293504A, “Process for preparing optically active α-cyano-3-(4-halogenophenoxy)-benzyl 2-(4-chlorophenyl)isovalerate” (Sumitomo Chemical Company, Limited, priority 1979, dated 1981)
